Test results from ChEMBL document CHEMBL1151077, “Peptide mimics of glycylproline as inhibitors of prolidase” (Bioorg Med Chem Lett, 1995).
Peptide text beside a SMILES is read from it. * marks the point of attachment. Bz = O=C(c1ccccc1)*

Target: Angiotensin-converting enzyme (Homo sapiens, UniProt P12821+Q9BYF1)
Experiment: Inhibitory activity against angiotensin converting enzyme
Assay type: protein assay

O=C(N[C@@H](Cc1ccccc1)C(=O)NCC(=O)N1CCC[C@H]1C(=O)O)c1ccccc1 (Bz-Phe-Gly-Pro-OH) showed an IC50 of 9.4 µM.
